# Laboratory results published in paper PMC6750642, “Direct Measurement of Amorphous Solubility” (Analytical Chemistry, 2019).
# Read-outs that look alike come from different tables or passages of the source. Marks after values point to notes of the source that are not given here.
# Legend:
# [1] = cited from earlier work
# [2] = cited from earlier work; remark: listed apart in the source
# [3] = Theoretical estimation of DS by the Hoffman method from DSC and DVS data; assay type: physicochemical
# Protocol: Samples of 5–10 mg were tightly packed into standard aluminum crucibles (40 μL) with pierced lids. The samples were equilibrated at 25 °C for 3 min and then linearly heated with a heating rate of 10 °C/min to 20 °C above their respective melting points. Measurements of both amorphous and crystalline samples were recorded in triplicate, and thermal events were analyzed using the STARe software (Mettler-Toledo, Greifensee, Switzerland). Temperatures and melting enthalpies were used to estimate the free energy difference between the amorphous and crystalline forms.
# The water sorption isotherms of the five amorphous drug samples were determined using the method previously described by Murdande et al.[10] A VTI-SA+ Vapor Sorption Analyzer (TA Instruments, New Castle, DE, USA) was used to measure the moisture sorption profiles of the amorphous samples. Approximately 10 mg of amorphous sample was placed into a glass holder. To reduce the possibility of sample crystallization during the measurement, no drying step was used. The DVS measurements were performed at 25 °C from 0 to 95% relative humidity (in 10% steps up to 90%). The equilibrium criterion was 0.001% weight change in 5 min with a maximum step time of 150 min. The instrument is calibrated once a month.
# According to Hoffman, the difference in Gibbs free energy (ΔG) between the crystalline and the amorphous form can be estimated using eq 4.[15]Hm, Tm, and T are the melting enthalpy of the crystalline form, the melting temperature of the crystalline form, and the experimental temperature measured in Kelvin, respectively. Using the ΔG estimation, the maximum DS due to amorphization was predicted according to Hancock and Parks[9] and corrected for the impact of water on the amorphous solute as proposed by Murdande et al. through eq 5.[10]R and exp(−I(a2)) are the gas constant and a correction factor obtained from DVS measurements, as shown by Murdande et al.[10]
# [4] = Image-based single particle analysis (SPA) solubility measurement of amorphous and crystalline samples; assay type: physicochemical; settings: for DS (degree of supersaturation, amorphous vs crystalline solubility), SPA method: Milli-Q ultrapure water, type 1
# Protocol: The constant flow continuously displaces drug molecules from the surface of the dissolving particle. […] (Figure 1). The solubilities of all five crystalline and amorphous samples were measured in triplicate in Milli-Q water. […] The obtained solubility values, therefore, were the average of three independent measurements, where at least ten particles per single measurement were analyzed. Additionally, amorphous IND was also measured in HCl buffer pH 2.0 in the presence of 0.1% (w/v) polyvinylpyrolidone (PVP). The additional measurement using PVP was performed in order to assess the need for a crystallization inhibitor in the SPA experiments. The solubilities of the amorphous and crystalline samples were measured in Milli-Q water and USP buffers as soon as the solvent came in contact with particles.
# [5] = Dynamic water sorption (DVS) of amorphous samples; assay type: physicochemical; settings: above RH 80%, 25 °C
Structure (SMILES),DS range reported in the literature ([1]; temperature range of 34–75 °C),"DS, literature, dissolution in water ([2]; distilled water)","DS, theoretical estimation (Hoffman method with correction for the effect of water on the amorphous solute) [3]","DS (degree of supersaturation, amorphous vs crystalline solubility), SPA method [4]","DS, literature, theoretical estimation [1]","DS, literature, dissolution in water ([2]; deionized water)","sample mass loss in DVS experiment (crystallization, water expelled) [5]","DS, theoretical estimation based solely on ΔG, without the correction for the adsorbed water [3]","DS, literature, theoretical estimation ([1]; approach by Almeida et al.)","effect of PVP in the dissolution medium on the solubility of the amorphous form, SPA method ([4]; USP HCl buffer pH 2.0 with vs without PVP 0.1% (w/v))"
"Cc1ccc(-c2cc(C(F)(F)F)nn2-c2ccc(S(N)(=O)=O)cc2)cc1 [CEL, Celecoxib]",7–21,"3.1 ^c^, ^h",21.7,18.9,,,,,,
"C#C[C@]1(O)CC[C@H]2[C@@H]3CCC4=Cc5oncc5C[C@]4(C)[C@H]3CC[C@@]21C [DAN, Danazol]",,,23.9,,26.5 ^i,"3.0 ^d^, ^i",,,,
"OCCN(CCO)c1nc(N2CCCCC2)c2nc(N(CCO)CCO)nc(N3CCCCC3)c2n1 [DIP, Dipyridamole]",,,6.6,15.3,10 ^k,,0.39%,15.2,,
"COC1=CC(=O)C[C@@H](C)[C@]12Oc1c(Cl)c(OC)cc(OC)c1C2=O [GRI, griseofulvin]",,,34.6,29.8,29.1,"1.4 ^d^, ^i",,,30.9,
"COc1ccc2c(c1)c(CC(=O)O)c(C)n2C(=O)c1ccc(Cl)cc1 [IND, indomethacin]",,,18.7,20.4,20.8 ^i,"4.9 ^d^, ^i",,,,did not affect
